Tests used:
Test in all cases: biochemical
Assay type in all cases: biochemical
[1] = target: T1, 363 human kinases (including Aurora A/B/C) (Homo sapiens, UniProt O14757); conditions: CHK1, [ATP] 20 µM; for remaining activity at 0.1 µM: 100 nM; for remaining activity at 0.1 µM / remaining activity at 0.5 µM: read-out: % Enzyme Activity (relative to DMSO controls)
T1 sequence (O14757 1-476): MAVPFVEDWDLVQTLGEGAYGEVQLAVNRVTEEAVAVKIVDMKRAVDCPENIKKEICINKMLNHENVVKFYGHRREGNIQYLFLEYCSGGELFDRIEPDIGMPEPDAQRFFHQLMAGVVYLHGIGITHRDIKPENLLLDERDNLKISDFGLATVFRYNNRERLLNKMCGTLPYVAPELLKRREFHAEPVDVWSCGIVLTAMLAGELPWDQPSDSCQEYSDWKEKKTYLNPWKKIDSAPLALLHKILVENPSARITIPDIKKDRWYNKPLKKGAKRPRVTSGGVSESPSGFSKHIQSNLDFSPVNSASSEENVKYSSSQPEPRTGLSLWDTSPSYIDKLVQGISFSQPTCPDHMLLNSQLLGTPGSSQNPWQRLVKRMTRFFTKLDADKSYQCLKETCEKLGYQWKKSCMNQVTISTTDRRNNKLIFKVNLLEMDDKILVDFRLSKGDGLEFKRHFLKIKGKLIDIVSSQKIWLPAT
Text: (§1) However, the Aurora A/B selectivity ratios derived from our in vitro and in vivo data can be compared to prioritize inhibitors.

[2] = target: 363 human kinases (including Aurora A/B/C) (Homo sapiens, UniProt P80192); conditions: MLK1/MAP3K9; for remaining activity at 0.1 µM: 100 nM; for remaining activity at 0.1 µM / remaining activity at 0.5 µM: read-out: % Enzyme Activity (relative to DMSO controls)
Text: as §1

[3] = target: 363 human kinases (including Aurora A/B/C) (Homo sapiens, UniProt Q9Y6E0); conditions: MST3/STK24; for remaining activity at 0.1 µM: 100 nM; for remaining activity at 0.1 µM / remaining activity at 0.5 µM: read-out: % Enzyme Activity (relative to DMSO controls)
Text: as §1

[4] = target: 363 human kinases (including Aurora A/B/C) (Homo sapiens, UniProt P05771); conditions: PKCb1; for remaining activity at 0.1 µM: 100 nM; for remaining activity at 0.1 µM / remaining activity at 0.5 µM: read-out: % Enzyme Activity (relative to DMSO controls)
Text: as §1

[5] = target: 363 human kinases (including Aurora A/B/C) (Homo sapiens, UniProt Q00536); conditions: CDK16/cyclin Y (PCTAIRE), [ATP] 15 µM; for remaining activity at 0.1 µM: 100 nM; for remaining activity at 0.1 µM / remaining activity at 0.5 µM: read-out: % Enzyme Activity (relative to DMSO controls)
Text: as §1

[6] = target: 363 human kinases (including Aurora A/B/C) (Homo sapiens, UniProt Q15759); conditions: P38b/MAPK11; for remaining activity at 0.1 µM: 100 nM; for remaining activity at 0.1 µM / remaining activity at 0.5 µM: read-out: % Enzyme Activity (relative to DMSO controls)
Text: as §1

[7] = target: 363 human kinases (including Aurora A/B/C) (Homo sapiens, UniProt Q9Y572); conditions: RIPK3; for remaining activity at 0.1 µM: 100 nM; for remaining activity at 0.1 µM / remaining activity at 0.5 µM: read-out: % Enzyme Activity (relative to DMSO controls)
Text: as §1

[8] = target: 363 human kinases (including Aurora A/B/C) (Homo sapiens, UniProt O75460); conditions: ERN1/IRE1, [ATP] 30 µM; for remaining activity at 0.1 µM: 100 nM; for remaining activity at 0.1 µM / remaining activity at 0.5 µM: read-out: % Enzyme Activity (relative to DMSO controls)
Text: as §1

[9] = target: T2, 363 human kinases (including Aurora A/B/C) (Homo sapiens, UniProt P36897); conditions: ALK5/TGFBR1, [ATP] 100 µM; for remaining activity at 0.1 µM: 100 nM; for remaining activity at 0.1 µM / remaining activity at 0.5 µM: read-out: % Enzyme Activity (relative to DMSO controls)
T2 sequence (P36897 34-503): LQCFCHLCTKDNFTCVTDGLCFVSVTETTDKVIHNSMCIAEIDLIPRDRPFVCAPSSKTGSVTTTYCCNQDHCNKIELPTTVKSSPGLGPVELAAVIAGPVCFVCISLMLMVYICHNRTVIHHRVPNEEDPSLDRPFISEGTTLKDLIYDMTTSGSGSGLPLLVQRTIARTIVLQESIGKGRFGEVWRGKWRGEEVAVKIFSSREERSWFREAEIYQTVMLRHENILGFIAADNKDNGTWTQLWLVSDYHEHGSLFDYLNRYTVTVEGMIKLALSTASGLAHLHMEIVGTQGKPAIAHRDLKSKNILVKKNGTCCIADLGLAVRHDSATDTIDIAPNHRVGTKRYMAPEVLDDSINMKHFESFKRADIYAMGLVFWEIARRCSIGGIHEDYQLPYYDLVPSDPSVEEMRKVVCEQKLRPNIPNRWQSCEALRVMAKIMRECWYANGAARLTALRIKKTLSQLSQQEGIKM
Text: as §1

[10] = target: 363 human kinases (including Aurora A/B/C) (Homo sapiens, UniProt Q9BYP7); conditions: WNK3; for remaining activity at 0.1 µM: 100 nM; for remaining activity at 0.1 µM / remaining activity at 0.5 µM: read-out: % Enzyme Activity (relative to DMSO controls)
Text: as §1

[11] = target: T3, 363 human kinases (including Aurora A/B/C) (Homo sapiens, UniProt Q8N752); conditions: CK1a1L, [ATP] 30 µM; for remaining activity at 0.1 µM: 100 nM; for remaining activity at 0.1 µM / remaining activity at 0.5 µM: read-out: % Enzyme Activity (relative to DMSO controls)
T3 sequence (Q8N752 1-337): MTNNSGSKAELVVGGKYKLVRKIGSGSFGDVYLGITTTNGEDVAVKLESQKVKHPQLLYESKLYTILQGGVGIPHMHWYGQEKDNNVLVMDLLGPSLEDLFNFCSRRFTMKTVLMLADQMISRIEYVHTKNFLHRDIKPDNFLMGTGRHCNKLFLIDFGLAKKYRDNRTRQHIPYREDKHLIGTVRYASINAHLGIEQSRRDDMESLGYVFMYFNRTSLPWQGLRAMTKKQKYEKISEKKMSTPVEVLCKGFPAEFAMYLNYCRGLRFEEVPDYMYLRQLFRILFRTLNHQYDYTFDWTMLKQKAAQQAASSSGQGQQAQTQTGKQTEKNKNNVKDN
Text: as §1

[12] = target: 363 human kinases (including Aurora A/B/C) (Homo sapiens, UniProt Q00526); conditions: CDK3/cyclin E, [ATP] 30 µM; for remaining activity at 0.1 µM: 100 nM; for remaining activity at 0.1 µM / remaining activity at 0.5 µM: read-out: % Enzyme Activity (relative to DMSO controls)
Text: as §1

[13] = target: T4, 363 human kinases (including Aurora A/B/C) (Homo sapiens, UniProt O14733); conditions: MKK7; for remaining activity at 0.1 µM: 100 nM; for remaining activity at 0.1 µM / remaining activity at 0.5 µM: read-out: % Enzyme Activity (relative to DMSO controls)
T4 sequence (O14733 1-419): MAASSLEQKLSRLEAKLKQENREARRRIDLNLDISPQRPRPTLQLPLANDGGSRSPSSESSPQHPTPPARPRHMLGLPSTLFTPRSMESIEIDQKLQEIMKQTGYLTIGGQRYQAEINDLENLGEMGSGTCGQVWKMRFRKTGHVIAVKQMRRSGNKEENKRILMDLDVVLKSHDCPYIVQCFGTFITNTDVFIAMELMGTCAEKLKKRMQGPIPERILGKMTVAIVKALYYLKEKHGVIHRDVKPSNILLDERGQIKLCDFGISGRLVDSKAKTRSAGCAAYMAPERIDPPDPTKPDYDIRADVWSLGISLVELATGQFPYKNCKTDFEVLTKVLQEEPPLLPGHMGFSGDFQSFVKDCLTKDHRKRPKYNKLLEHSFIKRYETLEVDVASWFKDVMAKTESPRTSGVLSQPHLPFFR
Text: as §1

Chain of 363 human kinases (including Aurora A/B/C) (Homo sapiens, UniProt O75460) (O75460 19-977): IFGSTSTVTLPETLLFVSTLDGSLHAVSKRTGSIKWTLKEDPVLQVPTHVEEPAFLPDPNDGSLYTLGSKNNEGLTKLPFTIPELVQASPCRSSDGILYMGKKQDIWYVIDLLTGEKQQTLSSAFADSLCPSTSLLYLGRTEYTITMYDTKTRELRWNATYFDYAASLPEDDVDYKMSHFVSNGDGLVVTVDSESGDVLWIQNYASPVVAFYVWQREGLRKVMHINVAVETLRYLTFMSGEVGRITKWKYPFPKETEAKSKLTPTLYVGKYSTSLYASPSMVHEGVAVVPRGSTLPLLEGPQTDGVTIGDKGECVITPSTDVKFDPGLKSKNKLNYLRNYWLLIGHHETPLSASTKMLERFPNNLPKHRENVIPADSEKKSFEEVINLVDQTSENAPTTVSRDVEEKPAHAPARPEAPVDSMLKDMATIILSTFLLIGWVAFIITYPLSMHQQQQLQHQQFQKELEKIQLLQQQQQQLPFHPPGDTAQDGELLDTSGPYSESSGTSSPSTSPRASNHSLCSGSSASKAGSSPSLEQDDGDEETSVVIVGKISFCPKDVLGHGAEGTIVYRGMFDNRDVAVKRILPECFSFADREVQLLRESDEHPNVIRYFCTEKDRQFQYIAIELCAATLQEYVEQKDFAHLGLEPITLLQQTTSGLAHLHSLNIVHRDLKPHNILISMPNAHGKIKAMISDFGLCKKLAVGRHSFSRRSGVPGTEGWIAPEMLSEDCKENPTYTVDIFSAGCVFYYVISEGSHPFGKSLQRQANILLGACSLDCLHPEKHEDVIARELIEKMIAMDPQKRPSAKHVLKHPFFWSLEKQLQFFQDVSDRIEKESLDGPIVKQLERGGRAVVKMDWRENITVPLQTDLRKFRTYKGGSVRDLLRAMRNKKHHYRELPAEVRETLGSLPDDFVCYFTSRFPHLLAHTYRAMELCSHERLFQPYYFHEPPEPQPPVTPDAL
Chain of 363 human kinases (including Aurora A/B/C) (Homo sapiens, UniProt Q9BYP7) (Q9BYP7 whole entry): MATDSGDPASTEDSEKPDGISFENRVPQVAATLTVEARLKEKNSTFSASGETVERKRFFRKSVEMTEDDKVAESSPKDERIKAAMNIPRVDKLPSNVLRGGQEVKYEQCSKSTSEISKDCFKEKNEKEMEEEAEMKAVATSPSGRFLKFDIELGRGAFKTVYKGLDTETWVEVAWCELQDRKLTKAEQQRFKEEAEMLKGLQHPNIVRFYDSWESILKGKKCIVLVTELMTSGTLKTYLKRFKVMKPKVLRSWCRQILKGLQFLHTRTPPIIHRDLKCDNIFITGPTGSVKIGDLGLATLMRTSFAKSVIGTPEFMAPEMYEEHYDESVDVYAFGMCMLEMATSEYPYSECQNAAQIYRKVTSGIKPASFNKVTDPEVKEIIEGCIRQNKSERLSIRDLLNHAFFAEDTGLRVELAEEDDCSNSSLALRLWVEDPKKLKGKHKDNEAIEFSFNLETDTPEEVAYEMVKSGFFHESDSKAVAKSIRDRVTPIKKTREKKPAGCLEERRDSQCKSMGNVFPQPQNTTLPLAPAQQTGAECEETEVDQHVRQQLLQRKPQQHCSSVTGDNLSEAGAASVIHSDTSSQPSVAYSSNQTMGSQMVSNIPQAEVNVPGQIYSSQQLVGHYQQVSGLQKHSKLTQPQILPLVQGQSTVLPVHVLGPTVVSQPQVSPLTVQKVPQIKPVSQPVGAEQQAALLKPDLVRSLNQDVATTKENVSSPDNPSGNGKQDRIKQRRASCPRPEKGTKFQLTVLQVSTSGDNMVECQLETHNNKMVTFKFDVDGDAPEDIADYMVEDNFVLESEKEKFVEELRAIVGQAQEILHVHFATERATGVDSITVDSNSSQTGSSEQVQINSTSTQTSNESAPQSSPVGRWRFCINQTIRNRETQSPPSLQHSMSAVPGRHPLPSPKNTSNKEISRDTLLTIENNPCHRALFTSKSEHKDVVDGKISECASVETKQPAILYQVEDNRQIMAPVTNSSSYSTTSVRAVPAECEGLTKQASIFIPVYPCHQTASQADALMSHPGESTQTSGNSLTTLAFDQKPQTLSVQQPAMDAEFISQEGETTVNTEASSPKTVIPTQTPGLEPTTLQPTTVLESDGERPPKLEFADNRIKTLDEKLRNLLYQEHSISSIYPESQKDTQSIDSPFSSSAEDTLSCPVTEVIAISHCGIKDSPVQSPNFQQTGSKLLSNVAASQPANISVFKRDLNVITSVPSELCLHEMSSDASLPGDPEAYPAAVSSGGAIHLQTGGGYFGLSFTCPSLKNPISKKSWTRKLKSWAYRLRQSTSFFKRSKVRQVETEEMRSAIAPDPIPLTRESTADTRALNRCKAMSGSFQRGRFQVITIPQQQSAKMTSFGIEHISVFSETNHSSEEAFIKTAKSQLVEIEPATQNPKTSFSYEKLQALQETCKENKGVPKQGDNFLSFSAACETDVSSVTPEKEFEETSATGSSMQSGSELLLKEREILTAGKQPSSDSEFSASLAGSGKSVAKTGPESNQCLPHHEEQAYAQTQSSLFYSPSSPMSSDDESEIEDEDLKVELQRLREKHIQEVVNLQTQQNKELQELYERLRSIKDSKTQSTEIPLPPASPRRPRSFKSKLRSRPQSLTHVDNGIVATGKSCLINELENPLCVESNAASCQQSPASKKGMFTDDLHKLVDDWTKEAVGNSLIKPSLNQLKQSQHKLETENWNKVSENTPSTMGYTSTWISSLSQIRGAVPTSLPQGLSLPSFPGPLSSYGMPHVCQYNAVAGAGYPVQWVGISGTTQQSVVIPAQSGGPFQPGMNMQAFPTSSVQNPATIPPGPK
Chain of 363 human kinases (including Aurora A/B/C) (Homo sapiens, UniProt P05771) (P05771 whole entry): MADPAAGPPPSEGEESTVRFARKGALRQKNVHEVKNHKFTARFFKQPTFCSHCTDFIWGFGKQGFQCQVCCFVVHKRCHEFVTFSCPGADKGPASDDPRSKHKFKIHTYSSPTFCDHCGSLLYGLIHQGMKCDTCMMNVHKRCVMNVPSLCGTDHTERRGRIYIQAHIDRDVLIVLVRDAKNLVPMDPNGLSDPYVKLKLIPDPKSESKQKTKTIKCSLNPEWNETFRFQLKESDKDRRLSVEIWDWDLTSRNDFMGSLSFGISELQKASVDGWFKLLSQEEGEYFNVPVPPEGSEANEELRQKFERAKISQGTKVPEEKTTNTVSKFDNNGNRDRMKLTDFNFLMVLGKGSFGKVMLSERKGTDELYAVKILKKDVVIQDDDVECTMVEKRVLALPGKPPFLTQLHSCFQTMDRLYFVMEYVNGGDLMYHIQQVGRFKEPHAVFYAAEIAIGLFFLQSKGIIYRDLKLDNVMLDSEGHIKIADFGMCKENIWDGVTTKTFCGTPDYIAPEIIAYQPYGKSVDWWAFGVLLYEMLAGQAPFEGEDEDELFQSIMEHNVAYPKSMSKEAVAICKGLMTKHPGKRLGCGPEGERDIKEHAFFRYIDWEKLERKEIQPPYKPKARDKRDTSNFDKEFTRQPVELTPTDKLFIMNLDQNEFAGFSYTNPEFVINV
Chain of 363 human kinases (including Aurora A/B/C) (Homo sapiens, UniProt P80192) (P80192 whole entry): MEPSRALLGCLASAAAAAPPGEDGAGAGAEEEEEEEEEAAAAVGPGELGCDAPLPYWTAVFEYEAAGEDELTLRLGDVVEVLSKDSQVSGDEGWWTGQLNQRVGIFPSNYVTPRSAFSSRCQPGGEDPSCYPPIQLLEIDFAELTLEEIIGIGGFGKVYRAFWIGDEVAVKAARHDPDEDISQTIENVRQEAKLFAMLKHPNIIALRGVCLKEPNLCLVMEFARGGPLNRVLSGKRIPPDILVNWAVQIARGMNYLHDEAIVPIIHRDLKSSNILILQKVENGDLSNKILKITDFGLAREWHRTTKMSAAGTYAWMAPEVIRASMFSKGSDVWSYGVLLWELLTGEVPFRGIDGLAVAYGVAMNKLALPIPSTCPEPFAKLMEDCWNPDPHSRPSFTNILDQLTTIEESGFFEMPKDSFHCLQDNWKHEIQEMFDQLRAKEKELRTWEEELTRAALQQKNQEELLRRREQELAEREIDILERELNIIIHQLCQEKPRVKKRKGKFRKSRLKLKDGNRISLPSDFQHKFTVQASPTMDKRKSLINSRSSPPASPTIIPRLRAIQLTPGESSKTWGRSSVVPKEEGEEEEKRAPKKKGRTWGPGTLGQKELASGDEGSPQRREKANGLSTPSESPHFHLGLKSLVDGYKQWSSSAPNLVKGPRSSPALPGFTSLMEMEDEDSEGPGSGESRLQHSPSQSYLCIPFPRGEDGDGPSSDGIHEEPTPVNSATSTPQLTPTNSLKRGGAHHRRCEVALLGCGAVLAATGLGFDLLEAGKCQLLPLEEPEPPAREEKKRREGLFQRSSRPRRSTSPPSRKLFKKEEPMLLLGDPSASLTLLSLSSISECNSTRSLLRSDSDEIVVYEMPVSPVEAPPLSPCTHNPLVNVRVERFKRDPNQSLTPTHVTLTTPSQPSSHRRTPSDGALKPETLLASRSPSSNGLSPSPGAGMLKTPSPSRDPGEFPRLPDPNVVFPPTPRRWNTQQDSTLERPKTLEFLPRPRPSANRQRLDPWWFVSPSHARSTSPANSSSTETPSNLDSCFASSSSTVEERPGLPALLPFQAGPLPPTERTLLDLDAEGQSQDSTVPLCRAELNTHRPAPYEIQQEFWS
Chain of 363 human kinases (including Aurora A/B/C) (Homo sapiens, UniProt Q00536) (Q00536 whole entry): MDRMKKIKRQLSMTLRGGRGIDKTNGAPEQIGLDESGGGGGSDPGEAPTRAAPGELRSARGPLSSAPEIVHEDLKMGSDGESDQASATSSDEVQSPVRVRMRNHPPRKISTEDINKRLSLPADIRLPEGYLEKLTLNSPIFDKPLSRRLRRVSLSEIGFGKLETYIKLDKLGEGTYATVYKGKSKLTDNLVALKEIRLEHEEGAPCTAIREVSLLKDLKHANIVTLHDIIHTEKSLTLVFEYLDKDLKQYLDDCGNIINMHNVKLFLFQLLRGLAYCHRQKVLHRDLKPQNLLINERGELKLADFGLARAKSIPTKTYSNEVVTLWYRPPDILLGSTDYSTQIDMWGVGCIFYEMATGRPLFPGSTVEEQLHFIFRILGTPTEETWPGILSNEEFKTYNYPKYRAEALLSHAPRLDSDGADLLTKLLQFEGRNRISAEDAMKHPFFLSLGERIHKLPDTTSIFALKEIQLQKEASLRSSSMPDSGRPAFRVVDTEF

SMILES | remaining activity at 0.1 µM [1] [%] | remaining activity at 0.1 µM [2] [%] | remaining activity at 0.1 µM [3] [%] | remaining activity at 0.1 µM [4] [%] | remaining activity at 0.1 µM [5] [%] | remaining activity at 0.1 µM [6] [%] | remaining activity at 0.1 µM [7] [%] | remaining activity at 0.1 µM [8] [%] | remaining activity at 0.1 µM [9] [%] | remaining activity at 0.1 µM [10] [%] | remaining activity at 0.1 µM [11] [%] | remaining activity at 0.1 µM [12] [%] | remaining activity at 0.1 µM [13] [%] | remaining activity at 0.5 µM ([1]; 500 nM) [%] | remaining activity at 0.5 µM ([2]; 500 nM) [%] | remaining activity at 0.5 µM ([3]; 500 nM) [%] | remaining activity at 0.5 µM ([4]; 500 nM) [%] | remaining activity at 0.5 µM ([5]; 500 nM) [%] | remaining activity at 0.5 µM ([6]; 500 nM) [%] | remaining activity at 0.5 µM ([7]; 500 nM) [%] | further results
CCn1cc(-c2ccnc3[nH]c(-c4cccc(CN(C)C)c4)cc23)c(-c2ccc(NC(=O)N(C)C)cc2)n1 [GSK1070916] | 98.7 | 97.6 | 85.4 | 98.6 | 107 | 94.3 | 88.3 | 95.9 | 106 | 110 | 108 | 83.7 | 95.4 | – | – | – | – | – | – | – | –
O=C(O)[C@]1(Cc2cccc(Nc3nccs3)n2)CC[C@@H](Oc2cccc(Cl)c2F)CC1 [MK-5108] | 103 | 88.5 | 102 | 87.4 | 83.6 | 102 | 122 | 106 | 116 | 91.9 | 108 | 88.3 | 99.5 | 148 | 64.3 | 87.9 | 74 | 98 | 96 | 87.7 | remaining activity at 0.5 µM ([8]; 500 nM): 88.8%; remaining activity at 0.5 µM ([9]; 500 nM): 130%; remaining activity at 0.5 µM ([10]; 500 nM): 63.4%; remaining activity at 0.5 µM ([11]; 500 nM): 115%; remaining activity at 0.5 µM ([12]; 500 nM): 80.5%; remaining activity at 0.5 µM ([13]; 500 nM): 101%
O=C(c1cccc(Cl)c1F)N1CCN(Cc2cccc(Nc3nccs3)n2)CC1 [MK-8745] | – | – | – | – | – | – | – | – | – | – | – | – | – | 105 | 102 | 85.3 | 98.2 | 111 | 93.2 | 94.8 | % Enzyme Activity (relative to DMSO controls) ([1]; 500 nM): 104.15%; % Enzyme Activity (relative to DMSO controls) ([2]; 500 nM): 101.78%; % Enzyme Activity (relative to DMSO controls) ([3]; 500 nM): 84.91%; % Enzyme Activity (relative to DMSO controls) ([4]; 500 nM): 96.23%; % Enzyme Activity (relative to DMSO controls) ([5]; 500 nM): 110.95%; % Enzyme Activity (relative to DMSO controls) ([6]; 500 nM): 92.96%; % Enzyme Activity (relative to DMSO controls) ([7]; 500 nM): 90.81%; % Enzyme Activity (relative to DMSO controls) ([8]; 500 nM): 88.65%; remaining activity at 0.5 µM ([8]; 500 nM): 89.3%; % Enzyme Activity (relative to DMSO controls) ([9]; 500 nM): 109.55%; remaining activity at 0.5 µM ([9]; 500 nM): 110%; % Enzyme Activity (relative to DMSO controls) ([10]; 500 nM): 106.70%; remaining activity at 0.5 µM ([10]; 500 nM): 108%; % Enzyme Activity (relative to DMSO controls) ([11]; 500 nM): 102.40%; remaining activity at 0.5 µM ([11]; 500 nM): 103%; % Enzyme Activity (relative to DMSO controls) ([12]; 500 nM): 77.67%; remaining activity at 0.5 µM ([12]; 500 nM): 78.6%; % Enzyme Activity (relative to DMSO controls) ([13]; 500 nM): 95.34%; remaining activity at 0.5 µM ([13]; 500 nM): 98%

Reference: PMC4685510, “A Cell Biologist’s Field Guide to Aurora Kinase Inhibitors” (Frontiers in Oncology, 2015)
